Experimental data: patent US8377867B2, “Use of epinecidin-1 peptides and anti-lipopolysaccharide factor peptides for treating microbial infection” (Academia Sinica, priority 2009, dated 2013)
Bridge positions count the residues as written; N and C are the ends. Ends that are not written are not given here. Peptide text beside a SMILES is read from it.

Key:
T. vaginalis cells = assay: EtBr/acridine orange staining of T. vaginalis cells, epifluorescence microscopy; type: cell-based, Trichomonas vaginalis; conditions: peptide 200 μg/ml co-treated with metronidazole 100 μg/ml, 16 hours
Method: T. vaginalis cells (4000 cells/well) were co-treated with metronidazole (100 μg/ml) and Epinecidin-122-42 (200 μg/ml), csSALF55-76 (200 μg/ml), or 1sSALF122-42 (200 μg/ml) for 16 hours. Both metronidazole and the peptides were dissolved in PBS. The T. vaginalis cells were then stained with cold PBS containing 1 μg/ml ethidium bromide (EtBr) and 1 μg/ml acridine orange (AO) for 10 minutes and examined by epifluorescence microscopy.

[1] = system: T. vaginalis cells (ATCC 50148 and T1); assay: Scanning electron microscopy of T. vaginalis morphology; type: cell-based, Trichomonas vaginalis; conditions: ATCC 50148 and T1 cells, peptide 100 or 200 μg/ml, 1, 4 and 16 hours
Method: The effect of the three peptides on morphology of T. vaginalis cells was examined by scanning electron microscopy (SEM) and transmission electron microscopy (TEM) as follows. Cells of the ATCC 50148 and T1 strains were cultured in a 96-well cell culture plate (1×10^4 cells/well). The ATCC 50148 cells were treated with Epinecidin-122-42 (100 μg/ml), csSALF55-76 (100 μg/ml), or 1sSALF122-42 (200 μg/ml) for 1, 4, and 16 hours and the T1 cells were treated with Epinecidin-122-42 (100 μg/ml), csSALF55-76 (200 μg/ml), or 1sSALF122-42 (100 μg/ml) for the same periods. T. vaginalis cells treated with PBS were used as a control. The treated cells were then analyzed by SEM. […] A large amount of cell debris was also observed in the peptide-treated cells.

[2] = system: T. vaginalis cells (ATCC 50148 and T1); assay: Transmission electron microscopy of T. vaginalis morphology; type: cell-based, Trichomonas vaginalis; conditions: ATCC 50148 and T1 cells, 16 hours, peptide 150-250 (Epinecidin 150 μg/ml, csSALF 250 mg/ml, lsSALF 150 or 200 μg/ml)
Method: The T. vaginalis cells mentioned above were also subjected to TEM analysis as described in Pan et al., DNA Cell Biol. 26:403-413 (2007). Briefly, the ATCC 50148 cells (2×10^4) were treated for 16 hours with Epinecidin-122-42 at a concentration of 150 μg/ml, csSALF55-76 at a concentration of […], and 1sSALF122-42 at a concentration of 150 μg/ml; the T1 cells (2×10^4) were treated for 16 hours with Epinecidin-122-42 at a concentration of 150 μg/ml, csSALF55-76 at a concentration of […], and 1sSALF122-42 at a concentration of 200 μg/ml. T. vaginalis cells treated with PBS were used as a control. Morphology of the treated cells was observed using a transmission electron microscope (Hitachi, H-7000, Tokyo, Japan) at 75 kV; see Pan et al., DNA Cell Biol. 26:403-413 (2007).

[3] = system: T. vaginalis cells (ATCC 50148 and T1); assay: T. vaginalis cell viability, trypan blue exclusion assay; type: cell-based, Trichomonas vaginalis
Method: Finally, the numbers of viable T. vaginalis cells after peptide treatment were counted following the method described in Ofer et al., Int. J. Parasitol., 38:959-968 (2008). Briefly, cells of ATCC 50148 and T1 were treated with each of the three peptides mentioned above at 25, 50, 100, or 200 μg/ml for 1, 4, and 16 h (overnight), then the viability was analyzed. Cell viability was then determined by the conventional trypan blue exclusion assay. […] More than 60% T1 cells died after being treated with this peptide at a concentration of 50 μg/ml for one hour.

[4] = system: Propionibacterium acnes (BCRC #10723); type: cell-based
Method: Propionibacterium acnes (BCRC #10723) cells were cultured under the conditions recommended by Bioresource Collection and Research Centre (BCRC) in Taiwan (see bcrc.firdi,org.tw:819/bcrc/indexe.htm). Their growth inhibition by Epinecidin-122-42 was determined following the method described in Pan et al., DNA Cell Biol. 26:403-413 (2007). The minimum inhibitory concentration of this peptide against P. acnes was 200 μg/ml.

[5] = system: Propionibacterium acnes (BCRC #10723); assay: SEM and TEM of P. acnes morphology; type: cell-based; conditions: P. acnes BCRC #10723, peptide 100 μg/ml in PBS
Method: The effect of Epinecidin-122-42 on P. acnes morphology was examined by SEM and TEM as follows. BCRC #10723 cells were seeded in a 6-well plate (1×10^4 cells per well), cultured for a sufficient period, collected by centrifugation, and re-suspended in PBS to reach an OD550 value of 1.0. The bacterial suspension was mixed with a freshly prepared PBS solution containing the peptide at a concentration of 100 μg/ml or PBS as a control.

[6] = system: C. albicans strain BCRC #20511; type: cell-based, Candida albicans
Method: Cells of C. albicans strain BCRC #20511 were cultured following the protocol provided by BCRC. These cells were treated with peptide Epinecidin-122-42 at various concentrations and their growth inhibition was examined following the method disclosed in Pan et al., Int. Immunopharmacol. 7:687-700 (2007).

[7] = system: C. albicans strain BCRC #20511; assay: SEM and TEM of C. albicans morphology; type: cell-based, Candida albicans; conditions: C. albicans BCRC #20511, peptide 50 μg/ml
Method: The effect of Epinecidin-122-42 (50 μg/ml) on C. albicans cell morphology was analyzed by SEM and TEM following the methods mentioned above.

[8] = ATCC 50148 cells, 50 μg/ml, four hours

| Compound | Effect on cellular and nuclear membranes (EtBr/AO red color in nuclei) (T. vaginalis cells) | Cell morphology by SEM [1] | Cell morphology by TEM [2] | Cells died after treatment [3, 8] | Cells died after treatment ([3]; T1 cells, 25 μg/ml, 16 hours) | Viable cells after treatment ([3]; ATCC 50148 cells, 25 μg/ml, one hour) | Viable cells after treatment ([3]; T1 cells, 25 μg/ml, four hours) | Cells died after treatment ([3]; T1 cells, 50 μg/ml, one hour) | Minimum inhibitory concentration [4] [µg/mL] | Cell morphology by SEM and TEM [5] | Cell growth inhibition ([6]; C. albicans BCRC #20511, various concentrations) | Minimum inhibitory concentration ([6]; strain BCRC #20511) [µg/mL] | Cell morphology by SEM and TEM [7] |
| --- | --- | --- | --- | --- | --- | --- | --- | --- | --- | --- | --- | --- | --- |
| CSCC[C@@H]1NC(=O)[C@H](CCCNC(=N)N)NC(=O)CNC(=O)[C@H](CCCCN)NC(=O)[C@H](Cc2ccc(O)cc2)NC(=O)[C@H](Cc2ccc(O)cc2)NC(=O)[C@H](C(C)C)NC(=O)[C@H](CCC(N)=O)NC(=O)[C@H](Cc2ccccc2)NC(=O)[C@H](CCCNC(=N)N)NC(=O)[C@H](CCCCN)NC(=O)[C@H](CC(C)C)NC(=O)[C@H](Cc2ccc(O)cc2)NC(=O)[C@@H]2CCCN2C(=O)[C@H](CCCCN)NC(=O)[C@H](C(C)C)NC(=O)[C@H]([C@@H](C)O)NC(=O)[C@H](Cc2ccccc2)NC(=O)[C@H](CCCCN)NC(=O)[C@@H](NC(=O)[C@H](CCC(=O)O)NC(C)=O)CSSC[C@@H](C(=O)N2CCC[C@H]2C(N)=O)NC(=O)[C@H](Cc2c[nH]c3ccccc23)NC1=O [cs-SALF55-76] (Ac-ECKFTVKPYLKRFQVYYKGRMWCP-NH2; disulfide 2-23; N-terminus and C-terminus assumed) | destroyed the cellular and nuclear membranes | damaged cell membranes and distorted cell shape | significantly disrupted the intact structure | most ATCC 50148 cells died | most T1 cells died |  |  |  |  |  |  |  |  |
| CSCC[C@H](NC(=O)[C@H](CCCNC(=N)N)NC(=O)CNC(=O)[C@H](CCCCN)NC(=O)[C@H](Cc1ccc(O)cc1)NC(=O)[C@H](Cc1ccc(O)cc1)NC(=O)[C@@H](NC(=O)[C@H](CCC(N)=O)NC(=O)[C@H](Cc1ccccc1)NC(=O)[C@H](CCCNC(=N)N)NC(=O)[C@H](CCCCN)NC(=O)[C@H](CC(C)C)NC(=O)[C@H](Cc1ccc(O)cc1)NC(=O)[C@@H]1CCCN1C(=O)[C@H](CCCCN)NC(=O)[C@@H](NC(=O)[C@@H](NC(=O)[C@H](Cc1ccccc1)NC(=O)[C@H](CCCCN)NC(=O)[C@H](CS)NC(=O)[C@@H](N)CCC(=O)O)[C@@H](C)O)C(C)C)C(C)C)C(=O)N[C@@H](Cc1c[nH]c2ccccc12)C(=O)N[C@@H](CS)C(=O)N1CCC[C@H]1C(=O)O [ls-SALF55-76] (H-ECKFTVKPYLKRFQVYYKGRMWCP-OH; N-terminus and C-terminus assumed) | destroyed the cellular and nuclear membranes | damaged cell membranes and distorted cell shape | significantly disrupted the intact structure | most ATCC 50148 cells died | most T1 cells died |  |  |  |  |  |  |  |  |
| GFIFHIIKGLFHAGKMIHGLV-NH2 [Epinecidin-122-42] | destroyed the cellular and nuclear membranes | damaged cell membranes and distorted cell shape | significantly disrupted the intact structure |  |  | No viable cells | No viable cells | More than 60% | 200 | destroyed the outer membranes of P. acnes cells | significantly inhibited C. albicans cell growth | 25 | irregular shape and disrupted outer/intracellular membranes |
